Test results published in ChEMBL document CHEMBL1201862, “PubChem BioAssay data set” (2004).
Values joined by “and” are separate entries in the source; they are usually repeats but may differ in a detail not shown here. Identical values can stand only once.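 Results reflect a 48-hour exposure of cells in 96-well plates to compound at five concentrations. At the GI50, growth is halved.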 Active and inactive are the calls of the source. No stated cut-off is given here; in the data, active = GI50 up to about 1.1 µM and inactive = higher.

Tests used:
Assay in all cases: NCI tumour cell line growth inhibition, 48 h
[1] = system: 786-0
[2] = system: SK-MEL-2
[3] = system: OVCAR-8
[4] = system: HL-60
[5] = system: RPMI-8226
[6] = system: Hs-578T
[7] = system: SNB-75
[8] = system: OVCAR-5
[9] = system: NCI/ADR-RES
[10] = system: SF-539
[11] = system: TK-10
[12] = system: MDA-MB-231
[13] = system: NCI-H226
[14] = system: U-251
[15] = system: SW-620
[16] = system: SF-295
[17] = system: SK-MEL-5
[18] = system: CCRF-CEM
[19] = system: SK-MEL-28
[20] = system: EKVX
[21] = system: SR
[22] = system: SF-268
[23] = system: K562
[24] = system: NCI-H522
[25] = system: SK-OV-3
[26] = system: BT-549
[27] = system: CAKI-1
[28] = system: MOLT-4
[29] = system: HOP-92
[30] = system: OVCAR-4
[31] = system: Malme-3M
[32] = system: UACC-257
[33] = system: PC-3
[34] = system: M14
[35] = system: HCC 2998
[36] = system: UACC-62
[37] = system: LOX IMVI
[38] = system: T47D
[39] = system: DU-145
[40] = system: ACHN
[41] = system: MCF7
[42] = system: HCT-116
[43] = system: A549
[44] = system: HOP-62

Measured: GI50

Cc1ccc(OCC2OC(n3cnc4c(Cl)ncnc43)CC2Oc2ccc(C)cc2)cc1 (configuration not stated)
inactive: [1] 31.8 µM and 17.4 µM | [2] 12.4 µM and 17.3 µM | [3] 8.93 µM and 8.3 µM | [4] 2.29 µM and 1.72 µM | [5] 2.69 µM and 5.31 µM | [6] 6.84 µM and 4.7 µM | [7] 26.1 µM and 15.8 µM | [8] 26.4 µM and 24.9 µM | [9] 12.4 µM and 19.2 µM | [10] 22.9 µM and 15.8 µM | [11] 30.5 µM and 45 µM | [12] 9.51 µM and 5.35 µM | [13] 11.9 µM and 20.8 µM | [14] 1.97 µM and 2.55 µM | [15] 2.07 µM and 3.43 µM | [16] 20 µM and 14.9 µM | [17] 15.4 µM and 18.7 µM | [18] 4.78 µM and 5.09 µM | [19] 1.71 µM and 2.13 µM | [20] 3.06 µM and 2.84 µM | [21] 2.66 µM and 3.29 µM | [22] 7.91 µM and 4.74 µM | [23] 4.92 µM and 2.99 µM | [24] 2.27 µM and 1.71 µM | [25] 29.8 µM and 20 µM | [26] 20.2 µM and 18.5 µM | [27] 2.21 µM and 1.94 µM | [28] 2.48 µM and 2.49 µM

CC[C@@]1(O)C(=O)OCc2c1cc1n(c2=O)Cc2c-1nc1ccccc1c2/C=N/c1ccccc1N[C@@H]1c2cc3c(cc2[C@@H](c2cc(OC)c(O)c(OC)c2)[C@H]2C(=O)OC[C@@H]21)OCO3
active: [29] 209 nM | [1] 14.2 nM | [30] 427 nM | [31] 329 nM | [32] 278 nM | [5] 175 nM | [7] 28 nM | [33] 164 nM | [34] 23.9 nM | [35] 148 nM | [12] 1.05 µM | [13] 36.2 nM | [14] 188 nM | [15] 157 nM | [17] 53.2 nM | [18] < 5 nM | [36] 14 nM | [37] 19.4 nM | [38] 14 nM | [21] < 5 nM | [22] 16.1 nM | [39] 7.67 nM | [40] 10.6 nM | [26] 269 nM | [41] 6.84 nM | [42] 52.7 nM | [27] 20.4 nM | [43] 35.1 nM | [44] 10.3 nM
